Entries after “also recorded” stand apart in the source; their conditions may differ.
How the values were obtained:
[1] = tested on: Erk phosphorylation in DRG neurons; assay: Erk phosphorylation immunoblot in DRGs; format: cell-based, mice; conditions: 1 μM GM-284, 30 min or 4 h
Description: (A) DRGs were prepared and cultured as above, except that either the MEK1 inhibitor, PD 098059, or NGF-neutralizing antibodies were included in cultures treated with either NGF or GM-284. Maximal response was determined to be the extent of neurite outgrowth when DRGs were cultured in NGF alone (spotted bars) or in 1 μM GM-284 (striped bars). As indicated, DRGs were treated with either NGF or GM-284, in the presence of either 0.25 mg/ml anti-NGF neutralizing antibodies or PD 098059. […] DRGs were treated with 100 ng/ml NGF or 1 μM GM-284, for 30 min or 4 h, as indicated, and the detergent lysates were prepared and immunoblotted with anti-phospho-Erk monoclonal antibody. The p42 and p44 bands are indicated by arrowheads.
293T cells were lysed in ice-cold HNTG buffer (20 mM HEPES, pH 7.5; 150 mM NaCl; 10% glycerol; and 1% Triton X-100) containing 0.1 mM sodium molybdate, 1 mM sodium vanadate, 1 mM phenylmethylsulfonyl fluoride (PMSF), and 10 μg/ml aprotinin. After 10 min at 4° C., cleared lysates were subjected to SDS-PAGE and Western blot analysis using standard protocols. Blots were incubated with the indicated primary antibodies and the appropriate […] secondary antibodies, followed by detection using enhanced chemiluminescence (ECL) reagent (Renaissance, NEN).

[2] = tested on: SCIP and Brn-5 expression in Schwann cells; assay: RNA (Northern) blot for SCIP and Brn-5 in Schwann cells; format: cell-based, Sprague-Dawley rats; conditions: 1 μM GM-284, 48 h, growth-factor-starved Schwann cells
Description: To further assess the ability of GM-284 to regulate these genes, Schwann cells were maintained in DMEM containing FCS, and without forskolin or GGF, for 48 h, to rest the cells. Thereafter, 1 μM GM-284 was added for an additional 48 h. Total RNA was isolated, run on a denaturing agarose gel, transferred to a nylon filter, and hybridized with probes complimentary to either SCIP (panel a) or Brn-5 (panel b). Cyclophilin RNA was probed as a loading control.
20 μg of total RNA was prepared as previously described (Wu et al., The POU gene brn-5 is induced by neuregulin and is restricted to myelinating Schwann cells. Mol. Cell Neurosci., 17:683-95, 2001). Thereafter, total RNA was separated on 1% MOPS-formaldehyde agarose gels, transferred to MAGNA nylon transfer membrane (MSI), UV cross-linked (120 mJ/cm 2) using a UV crosslinker (FB-UVXL-1000, Fisher Biotech), and hybridized with ^32P-dCTP random-labeled (RTS RadPrime DNA Labeling System, Gibco BRL), probes purified by Sephadex G-50 column (Pharmacia, Peapack, N.J.).
The Brn-5 probe contains the rat Brn-5 coding region (generated by PCR), and was kindly provided by Dr. Bogi Andersen at the University of California at San Diego. This probe is 93% identical to the mouse Brn-5 mRNA. The SCIP probe was a 1.10-kb SmaI cDNA fragment from mouse SCIP DNA. […]

calcineurin = conditions: cited from earlier work
[3] = target: T1, full-length FKBP52 (GST fusion protein) (Homo sapiens, UniProt Q02790); assay: 3H-FK506 competition assay on bead-immobilized GST-FKBP52; format: binding; conditions: 10 nM FK506 with 3H-dihydro-FK506, 200-fold molar excess of cold ligand
T1 construct: GST-FKBP52 was constructed by PCR amplification of full-length FKBP52 from the pcDNA3 vector; made in house; host or cells: bacteria
T1 sequence (Q02790 1-459): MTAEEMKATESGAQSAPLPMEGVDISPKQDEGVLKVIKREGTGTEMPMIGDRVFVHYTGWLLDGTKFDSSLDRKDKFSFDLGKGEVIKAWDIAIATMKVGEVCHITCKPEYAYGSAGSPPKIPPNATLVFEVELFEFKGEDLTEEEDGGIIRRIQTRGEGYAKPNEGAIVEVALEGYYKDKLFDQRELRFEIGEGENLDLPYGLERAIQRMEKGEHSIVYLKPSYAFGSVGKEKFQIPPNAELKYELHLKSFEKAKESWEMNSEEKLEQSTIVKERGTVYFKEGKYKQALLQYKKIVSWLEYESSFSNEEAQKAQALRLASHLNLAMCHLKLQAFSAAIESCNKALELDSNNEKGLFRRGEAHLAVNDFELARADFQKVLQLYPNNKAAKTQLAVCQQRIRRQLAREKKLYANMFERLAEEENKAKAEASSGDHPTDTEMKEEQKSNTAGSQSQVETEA
Description: There was virtually no binding of GST alone to FKBP52 (not shown). […] Full-length FKBP52 was expressed as a GST fusion protein, purified over GSH-Sepharose resin. […] After extensive washing, the bound fraction (gray bars) was determined by liquid scintillation counting. […] Values are averages (with standard deviations) of three independent experiments.
Competition of […] binding to FKBP52 was carried out on GSH Sepharose beads from GST-FKBP52 expressed in bacteria. Briefly, GST-FKBP52 was constructed by PCR amplification of full-length FKBP52 from the pcDNA3 vector (Invitrogen, Carlsbad, Calif.), with FKBP52-specific primers flanked by EcORI/BamH1 restriction endonuclease sites. A 1.4-kb fragment was subsequently ligated into EcORI/BamH1, and digested with CIP-treated pGEX-6p to obtain a GST-fusion protein. The correct reading frame was verified by DNA sequencing. GST-FKBP52 fusion proteins were generated upon induction with 0.1 mM IPTG (from a 500-ml culture), and bacterial lysates were incubated with GSH Sepharose beads (Pharmacia, Peapack, N.J.) to collect FKBP52. Following several washes, first in bacterial lysis buffer and subsequently in PBS, the FKBP52 was over 90% pure, and was used for in vitro competition studies.

For `CCC(C)(C)C(=O)C(=O)N1CCC[C@H]1c1nnc([C@@H]2CCCN2C(=O)C(=O)C(C)(C)CC)o1` [GM-284], the “Erk phosphorylation in DRG” value [1] is listed as “no activity on Erk phosphorylation; also recorded: fails to activate the ERK pathway”, the “SCIP and Brn-5 RNA expression relative to vehicle-treated cells” value [2] is listed as “significantly induced; also recorded: induces Schwann cell expression of SCIP (Oct-6) and Brn-5” and the “binding to / inhibition of calcineurin” value (calcineurin) is listed as “neither bind to, nor inhibit, calcineurin”. The “competition for binding of 3H-FK506 to immobilized FKBP52” value [3] was “bind to FKBP52 with similar affinities; also recorded: each ligand is able to compete for binding to the receptor; also recorded: competes with FK506 for binding to full-length FKBP52”.

Source: US20040266811A1, “Methods for inducing regeneration, remyelination, and hypermyelination of nervous tissue” (priority 2002, published 2004)
